This passage reports EC50 results from patent US12440496B2, “Natriuretic peptide receptor a agonists useful for the treatment of cardiometabolic diseases, kidney disease and diabetes” (Merck Sharp & Dohme LLC, priority 2019, dated 2025).

Counter-ions that a name gives are not always drawn.

This assay has as its target T1, hNPRA (Homo sapiens, UniProt P16066).
T1 construct: expressed in transfected cells
T1 sequence (P16066 33-1061): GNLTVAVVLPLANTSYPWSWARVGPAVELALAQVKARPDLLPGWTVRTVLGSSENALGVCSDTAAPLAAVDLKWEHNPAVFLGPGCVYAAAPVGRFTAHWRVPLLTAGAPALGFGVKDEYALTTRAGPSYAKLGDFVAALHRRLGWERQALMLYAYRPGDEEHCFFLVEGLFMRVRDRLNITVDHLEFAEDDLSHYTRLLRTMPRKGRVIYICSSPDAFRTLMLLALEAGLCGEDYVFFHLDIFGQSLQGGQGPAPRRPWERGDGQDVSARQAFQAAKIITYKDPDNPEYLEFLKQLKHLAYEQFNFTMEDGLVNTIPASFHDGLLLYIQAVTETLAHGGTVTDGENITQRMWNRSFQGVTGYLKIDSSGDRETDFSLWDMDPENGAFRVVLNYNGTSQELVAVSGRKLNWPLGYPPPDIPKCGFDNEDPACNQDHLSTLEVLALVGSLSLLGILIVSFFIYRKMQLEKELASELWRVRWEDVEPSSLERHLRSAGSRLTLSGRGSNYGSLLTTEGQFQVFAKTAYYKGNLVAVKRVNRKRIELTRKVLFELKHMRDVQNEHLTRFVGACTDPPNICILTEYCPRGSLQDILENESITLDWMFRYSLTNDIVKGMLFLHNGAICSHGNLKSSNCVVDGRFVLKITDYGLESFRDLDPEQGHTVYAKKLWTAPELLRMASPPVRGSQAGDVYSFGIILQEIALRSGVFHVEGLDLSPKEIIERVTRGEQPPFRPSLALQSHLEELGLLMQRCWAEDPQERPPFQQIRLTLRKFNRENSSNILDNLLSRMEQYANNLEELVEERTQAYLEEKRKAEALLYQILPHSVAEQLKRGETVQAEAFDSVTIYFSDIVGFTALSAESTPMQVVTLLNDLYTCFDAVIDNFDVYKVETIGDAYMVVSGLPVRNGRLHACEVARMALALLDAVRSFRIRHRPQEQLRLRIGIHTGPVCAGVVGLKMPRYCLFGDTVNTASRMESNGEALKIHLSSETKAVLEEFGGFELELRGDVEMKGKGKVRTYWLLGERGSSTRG
The assay is described as follows: NPRA Functional Cell Assay (cGMP HTRF, NPRA HEK JumpIn stable cells). The format is cell-based. Conditions: cGMP production, 1 hour at 37° C., 10-point dose response. The method in brief:
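cGMP HTRF read-out after 1 hour compound treatment at 37° C. of human NPRA-expressing HEK JumpIn cells, 1500 cells/well, in buffer with phosphodiesterase inhibitors IBMX and RO20 (100 uM each). Signal converted to [cGMP] by calibration curve; EC50s fitted by 4-parameter logistic; 50 nM h-ANP as positive response.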
For orientation: Time-resolved FRET reads energy transfer from a long-lived donor to a nearby acceptor.
One may read the EC50 as the concentration giving half of the maximal effect. Low values mean an effect from little substance, high ones a need for much substance. For the compound `CC(C)(C)[C@H]1CCc2nc3sc(C(=O)N[C@H](CCN4CCC(O)CC4)c4cnc(-c5ccnnc5)c(F)c4)nc3cc2C1` [Example 266, (S)-7-(tert-butyl)-N-((R)-1-(5-fluoro-6-(pyridazin-4-yl)pyridin-3-yl)-3-(4-hydroxypiperidin-1-yl)propyl)-5,6,7,8-tetrahydrothiazolo[5,4-b]quinoline-2-carboxamide], the EC50 is 142 nM.
The value for `CC(C)(C)[C@H]1CCc2nc3sc(C(=O)N[C@H](CCN4CCC(O)CC4)c4ccc(OCC(N)=O)nc4)nc3cc2C1` (racemic) [Example 193, rac-(7S)-7-tert-butyl-N-[rac-(1R)-1-[6-(2-amino-2-oxo-ethoxy)-3-pyridyl]-3-(4-hydroxy-1-piperidyl)propyl]-5,6,7,8-tetrahydrothiazolo[5,4-b]quinoline-2-carboxamide] was 787 nM; that for `CC(C)(C)[C@H]1CCc2nc3sc(C(=O)N[C@H](CCN4CCC(C(=O)O)CC4)c4cccc(C(=O)NC5CN(Cc6ccccc6)C5)c4)nc3cc2C1` (racemic) [Example 123, 1-[rac-(3R)-3-[3-{(1-benzylazetidin-3-yl)carbamoyl]phenyl]-3-[[rac-(7S)-7-tert-butyl-5,6,7,8-tetrahydrothiazolo [5,4-b]quinoline-2-carbonyl]amino]propyl] piperidin-1-ium-4-carboxylic acid; 2,2,2-trifluoroacetate] was 657 nM.
As for `Cc1n[nH]cc1-c1ccc([C@@H](CCN2CCC(O)CC2)NC(=O)c2nc3cc4c(nc3s2)CC[C@H](C(C)(C)C)C4)cc1` (racemic) [Example 171, rac-(7S)-7-tert-butyl-N-[rac-(1R)-3-(4-hydroxy-1-piperidyl)-1-[4-(3-methyl-1H-pyrazol-4-yl)phenyl]propyl]-5,6,7,8-tetrahydrothiazolo[5,4-b]quinoline-2-carboxamide], the EC50 was 913 nM.
The value for `CN(C)CC[C@@H](NC(=O)c1nc2cc3c(nc2s1)CC[C@H](C(C)(C)C)C3)c1cccc(C(=O)NCCO)c1` (racemic) [Example 95, rac-(7S)-7-tert-butyl-N-[rac-(1R)-3-(dimethylamino)-1-[3-(2-hydroxyethylcarbamoyl)phenyl]propyl]-5,6,7,8-tetrahydrothiazolo[5,4-b] quinoline-2-carboxamide] was 690 nM.
The same measure for `CN(C)CC[C@@H](NC(=O)c1nc2cc3c(nc2s1)CC[C@H](C(C)(C)C)C3)c1cccc(C(N)=O)c1` (racemic) [Example 99, rac-(7S)-7-tert-butyl-N-[rac-(1R)-1-(3-carbamoylphenyl)-3-(dimethylamino)propyl]-5,6,7,8-tetrahydrothiazolo[5,4-b] quinoline-2-carboxamide]: 1830 nM; for `CC(C)(C)[C@H]1CCc2nc3sc(C(=O)N[C@H](CCN4CCC(F)CC4)c4cccc(NS(C)(=O)=O)c4)cc3cc2C1` (racemic) [Example 14, ammonium; methylsulfonyl-[3-[rac-(1R)-3-(4-fluoro-1-piperidyl)-1-[[rac-(6S)-6-tert-butyl-5,6,7,8-tetrahydrothieno[2,3-b]quinoline-2-carbonyl]amino]propyl]phenyl] azanide]: 834 nM; for `CC(C)[C@]1(F)CCc2nc3sc(C(=O)N[C@H](CCN4CCC(O)CC4)c4ccc(N5CC(=O)NC5=O)nc4)nc3cc2C1` [Example 219, (S)-N-((R)-1-(6-(2,4-dioxoimidazolidin-1-yl)pyridin-3-yl)-3-(4-hydroxypiperidin-1-yl)propyl)-7-fluoro-7-isopropyl-5,6,7,8-tetrahydrothiazolo[5,4-b]quinoline-2-carboxamide]: 384 nM.
In turn, `CC(C)(C)[C@H]1CCc2nc3sc(C(=O)N[C@H](CCN4CCC[C@H]4CO)c4ccccc4)cc3cc2C1` [Example 257, (6S)-6-tert-butyl-N-{(1R)-3-[(2S)-2-(hydroxymethyl)pyrrolidin-1-yl]-1-phenylpropyl}-5,6,7,8-tetrahydrothieno[2,3-b]quinoline-2-carboxamide] came in with an EC50 of 886 nM.
On to `CC(C)(C)[C@H]1CCc2nc3sc(C(=O)N[C@H](CCN4CCC(O)CC4)c4ccc(-c5ncns5)cc4)nc3cc2C1` (racemic) [Example 169, rac-(7S)-7-tert-butyl-N-[rac-(1R)-3-(4-hydroxy-1-piperidyl)-1-[4-(1,2,4-thiadiazol-5-yl)phenyl]propyl]-5,6,7,8-tetrahydrothiazolo[5,4-b]quinoline-2-carboxamide], for which a half-maximal effect (EC50) was put at 793 nM.
The same measure for `CN(C)CC[C@@H](NC(=O)c1cc2cc3c(nc2s1)CC[C@H](C(C)(C)C)C3)c1cccc(NS(C)(=O)=O)c1` (racemic) [Example 9, ammonium; methylsulfonyl-[3-[rac-(1R)-3-(dimethylamino)-1-[rac-(6S)-6-tert-butyl-5,6,7,8-tetrahydrothieno[2,3-b]quinoline-2-carbonyl]amino]propyl]phenyl] azanide]: 708 nM; for `CC(C)(C)[C@H]1CCc2nc3sc(C(=O)N[C@H](CCN4CCC(O)CC4)c4ccc(N5CCC(O)C5)nc4)nc3cc2C1` (mixture of isomers) [Example 190, rac-(7S)-7-tert-butyl-N-[rac-(1R)-3-(4-hydroxy-1-piperidyl)-1-[6-(3-hydroxypyrrolidin-1-yl)-3-pyridyl]propyl]-5,6,7,8-tetrahydrothiazolo[5,4-b]quinoline-2-carboxamide]: 1910 nM.
The value for `CN1CCC(NC(=O)c2cccc([C@@H](CCN3CCC(O)CC3)NC(=O)c3nc4cc5c(nc4s3)CC[C@H](C(C)(C)C)C5)c2)CC1` (racemic) [Example 141, rac-(7S)-7-tert-butyl-N-[rac-(1R)-3-(4-hydroxy-1-piperidy1)-1-[3-[(1-methyl-4-piperidyl)carbamoyl]phenyl]propyl]-5,6,7,8-tetrahydrothiazolo[5,4-b]quinoline-2-carboxamide] was 258 nM; that for `CCN(CC)CC[C@@H](NC(=O)c1nc2cc3c(nc2s1)CC[C@H](C(C)(C)C)C3)c1ccc(-c2cnc(O)c(F)c2)cc1` (racemic) [Example 202, diethyl-[rac-(3R)-3-[4-(5-fluoro-6-hydroxy-3-pyridyl)phenyl]-3-[[rac-(7S)-7-tert-butyl-5,6,7,8-tetrahydrothiazolo[5,4-b]quinoline-2-carbonyl]amino]propyl]ammonium; formate] was 514 nM.
The same measure for `CC(C)(C)[C@H]1CCc2nc3sc(C(=O)N[C@H](CCN4CCC(O)CC4)c4cccc(NS(C)(=O)=O)c4)cc3cc2C1` (racemic) [Example 8, ammonium; methylsulfonyl-[3-[rac-(1R)-3-(4-hydroxy-1-piperidyl)-1-[rac-(6S)-6-tert-butyl-5,6,7,8-tetrahydrothieno[2,3-b]quinoline-2-carbonyl]amino]propyl]phenyl] azanide]: 453 nM; for `O=C(O)C(F)(F)F.[2H]C([2H])([2H])N(CC[C@@H](NC(=O)c1nc2cc3c(nc2s1)CC[C@H](C(C)(C)C)C3)c1ccc(NS(=O)(=O)N(C)C)nc1)C([2H])([2H])[2H]` (racemic) [Example 207, [rac-(3R)-3-[6-(dimethylsulfamoylamino)-3-pyridyl]-3-[[rac-(7S)-7-tert-butyl-5,6,7,8-tetrahydrothiazolo[5,4-b]quinoline-2-carbonyl]amino]propyl]-bis(trideuteriomethyl)ammonium; 2,2,2-trifluoroacetate]: 679 nM.
The compound `CC(C)(C)[C@H]1CCc2nc3sc(C(=O)N[C@H](CCN4C[C@H](O)C[C@H]4CO)c4ccc(-c5ccc(=O)[nH]c5)cc4)cc3cc2C1` (racemic) [Example 71, rac-(6S)-6-tert-butyl-N-[rac-(1R)-1-[4-(6-oxo-1H-pyridin-3-yl)phenyl]-3-[rac-(2S,4R)-4-hydroxy-2-(hydroxymethyl)pyrrolidin-1-ium-1-yl]propyl]-5,6,7,8-tetrahydrothieno[2,3-b]quinoline-2-carboxamide;formate] had an EC50 of 1990 nM.
Turning to `CN(C)CC[C@@H](NC(=O)c1nc2cc3c(nc2s1)CC[C@H](C(C)(C)C)C3)c1cccc(C(=O)NC2CN(C)C2)c1` (racemic) [Example 86, rac-(7S)-7-tert-butyl-N-[rac-(1R)-3-(dimethyl-amino)-1-[3-[(1-methylazetidin-3-yl)carbamoyl]phenyl]propyl]-5,6,7,8-tetrahydrothiazolo[5,4-b] quinoline-2-carboxamide], it took 183 nM to reach a half-maximal effect (EC50).
